Test: phase 1b trial: adverse reactions and tolerability in CHB patients
Format: in vivo, human
Details: 28 days
Procedure: This was a randomized, open-label, placebo-controlled, phase 1b study (Clinical Trial Registration Number: NCT05470829; Chinese Clinical Trial Registration Number: CTR20210686), which was conducted at the Phase I Clinical Research Center, The First Hospital of Jilin University (Jilin, China), during the period from May to November of 2021. In order to minimize the safety risk of Canocapavir, an adaptive ascending dosing strategy was adopted for Canocapavir treatment in this study. The second and third assigned doses were initiated only after the safety data from the previous dose was reviewed and determined to be safe by the Principal Investigator and the Sponsor on day 8 postdosing (post drug administration days). Canocapavir was administered at the Clinical Research Center on days 1–8 and day 28 and at home on days 9–27 under the same conditions (fixed administration time and fasting condition). Patients were required to visit the facility for follow-up on days 15, 22, 27, 43 ± 1, and 57 ± 2 postdosing. The study protocol and informed consent forms were prepared according to the principles of the Declaration of Helsinki. The study protocol was approved by the Institutional Review Board of the First Hospital of Jilin University (approval number: 20Y201-006). All recruited patients provided written informed consent before participating in any study-related procedures.
A total of 30 CHB patients were recruited in this study and were randomly assigned into three cohorts (N = 10, each). In these three cohorts, the patients (in a ratio of 4:1) received 50, 100, or 200 mg of Canocapavir or placebo once a day for 28 consecutive days under fasting conditions, followed by a 28-day follow-up (Fig. 1). The patients, care providers, and those assessing outcomes were blinded during the study. This random process was completed in an electronic data capture system, and the details are shown in Additional file 1.
To examine possible adverse events (AEs) and adverse reactions (an adverse event is definitely, probably, or possibly related to the drug) in this study, the recruited patients underwent regular clinical laboratory testing, 12-lead electrocardiograms, examination of vital signs, abdominal ultrasound, and regular physical examinations, using the baseline data as a control. The severity of AEs and laboratory abnormalities were graded according to the Common Terminology Criteria for Adverse Events (CTCAE), version 5.0, which defines toxicity criteria. The AEs were coded using the Medical Dictionary for Regulatory Activities, version 24.1 (McLean, VA, USA).

O=C1CO[C@H](c2cn(-c3ccc(Br)cc3)nc2-c2ccc(F)cc2)N1CCc1ccc2[nH]c(=O)[nH]c2c1 [Canocapavir]
Adverse reactions, grade I, number of subjects (50 mg q.d.): 2 n | Adverse reactions, grade I, percent of subjects (50 mg q.d.): 25.00% | Adverse reactions, grade II, number of subjects (50 mg q.d.): 0 n | Adverse reactions, grade II, percent of subjects (50 mg q.d.): 0% | Adverse reactions, grade III, number of subjects (50 mg q.d.): 1 n | Adverse reactions, grade III, percent of subjects (50 mg q.d.): 12.50% | Adverse reactions, total (all grades), number of subjects (50 mg q.d.): 3 n | Adverse reactions, total (all grades), percent of subjects (50 mg q.d.): 37.5% | Decreased neutrophil count, cases (50 mg q.d.): 1 case | Decreased neutrophil count, grade II, number of subjects (50 mg q.d.): 0 n | Decreased neutrophil count, grade II, percent of subjects (50 mg q.d.): 0% | Decreased neutrophil count, grade III, percent of subjects (50 mg q.d.): 12.50% | Decreased neutrophil count, number of subjects (%) (50 mg q.d.): 1 (12.5) n (%) | Decreased platelet count, cases (50 mg q.d.): 0 case | Decreased platelet count, grade I, number of subjects (50 mg q.d.): 0 n | Decreased platelet count, grade I, percent of subjects (50 mg q.d.): 0% | Decreased platelet count, number of subjects (%) (50 mg q.d.): 0 (0) n (%) | Decreased serum phosphorus, cases (50 mg q.d.): 0 case | Decreased serum phosphorus, grade I, number of subjects (50 mg q.d.): 0 n | Decreased serum phosphorus, grade I, percent of subjects (50 mg q.d.): 0% | Decreased serum phosphorus, number of subjects (%) (50 mg q.d.): 0 (0) n (%) | Decreased white blood cell count, cases (50 mg q.d.): 1 case | Decreased white blood cell count, grade II, percent of subjects (50 mg q.d.): 12.50% | Decreased white blood cell count, number of subjects (%) (50 mg q.d.): 1 (12.5) n (%) | Hypertriglyceridemia, cases (50 mg q.d.): 0 case | Hypertriglyceridemia, grade III, number of subjects (50 mg q.d.): 0 n | Hypertriglyceridemia, grade III, percent of subjects (50 mg q.d.): 0% | Hypertriglyceridemia, number of subjects (%) (50 mg q.d.): 0 (0) n (%) | Increased alanine aminotransferase, cases (50 mg q.d.): 2 case | Increased alanine aminotransferase, grade I, number of subjects (50 mg q.d.): 2 n | Increased alanine aminotransferase, grade I, percent of subjects (50 mg q.d.): 25.00% | Increased alanine aminotransferase, grade II, number of subjects (50 mg q.d.): 0 n | Increased alanine aminotransferase, grade II, percent of subjects (50 mg q.d.): 0% | Increased alanine aminotransferase, number of subjects (%) (50 mg q.d.): 2 (25) n (%) | Increased aspartate aminotransferase, cases (50 mg q.d.): 1 case | Increased aspartate aminotransferase, grade I, number of subjects (50 mg q.d.): 1 n | Increased aspartate aminotransferase, grade I, percent of subjects (50 mg q.d.): 12.50% | Increased aspartate aminotransferase, grade II, number of subjects (50 mg q.d.): 0 n | Increased aspartate aminotransferase, grade II, percent of subjects (50 mg q.d.): 0% | Increased aspartate aminotransferase, number of subjects (%) (50 mg q.d.): 1 (12.5) n (%) | Increased bilirubin, cases (50 mg q.d.): 0 case | Increased bilirubin, grade I, number of subjects (50 mg q.d.): 0 n | Increased bilirubin, grade I, percent of subjects (50 mg q.d.): 0% | Increased bilirubin, number of subjects (%) (50 mg q.d.): 0 (0) n (%) | Increased creatinine, cases (50 mg q.d.): 1 case | Increased creatinine, grade I, number of subjects (50 mg q.d.): 1 n | Increased creatinine, grade I, percent of subjects (50 mg q.d.): 12.50% | Increased creatinine, number of subjects (%) (50 mg q.d.): 1 (12.5) n (%) | Increased γ-glutamyltransferase, cases (50 mg q.d.): 0 case | Increased γ-glutamyltransferase, grade I, number of subjects (50 mg q.d.): 0 n | Increased γ-glutamyltransferase, grade I, percent of subjects (50 mg q.d.): 0% | Increased γ-glutamyltransferase, number of subjects (%) (50 mg q.d.): 0 (0) n (%) | Rash, cases (50 mg q.d.): 0 case | Rash, grade I, number of subjects (50 mg q.d.): 0 n | Rash, grade I, percent of subjects (50 mg q.d.): 0% | Rash, number of subjects (%) (50 mg q.d.): 0 (0) n (%) | Total adverse reactions, cases (50 mg q.d.): 6 case | Total adverse reactions, number of subjects (%) (50 mg q.d.): 3 (37.5) n (%) | Adverse reactions, grade I, number of subjects (100 mg q.d.): 4 n | Adverse reactions, grade I, percent of subjects (100 mg q.d.): 50.00% | Adverse reactions, grade II, number of subjects (100 mg q.d.): 1 n | Adverse reactions, grade II, percent of subjects (100 mg q.d.): 12.50% | Adverse reactions, grade III, number of subjects (100 mg q.d.): 0 n | Adverse reactions, grade III, percent of subjects (100 mg q.d.): 0% | Adverse reactions, total (all grades), number of subjects (100 mg q.d.): 5 n | Adverse reactions, total (all grades), percent of subjects (100 mg q.d.): 62.5% | Decreased neutrophil count, cases (100 mg q.d.): 1 case | Decreased neutrophil count, grade II, percent of subjects (100 mg q.d.): 12.50% | Decreased neutrophil count, grade III, number of subjects (100 mg q.d.): 0 n | Decreased neutrophil count, grade III, percent of subjects (100 mg q.d.): 0% | Decreased neutrophil count, number of subjects (%) (100 mg q.d.): 1 (12.5) n (%) | Decreased platelet count, cases (100 mg q.d.): 1 case | Decreased platelet count, grade I, number of subjects (100 mg q.d.): 1 n | Decreased platelet count, grade I, percent of subjects (100 mg q.d.): 12.50% | Decreased platelet count, number of subjects (%) (100 mg q.d.): 1 (12.5) n (%) | Decreased serum phosphorus, cases (100 mg q.d.): 0 case | Decreased serum phosphorus, grade I, number of subjects (100 mg q.d.): 0 n | Decreased serum phosphorus, grade I, percent of subjects (100 mg q.d.): 0% | Decreased serum phosphorus, number of subjects (%) (100 mg q.d.): 0 (0) n (%) | Decreased white blood cell count, cases (100 mg q.d.): 1 case | Decreased white blood cell count, grade II, percent of subjects (100 mg q.d.): 12.50% | Decreased white blood cell count, number of subjects (%) (100 mg q.d.): 1 (12.5) n (%) | Hypertriglyceridemia, cases (100 mg q.d.): 0 case | Hypertriglyceridemia, grade III, number of subjects (100 mg q.d.): 0 n | Hypertriglyceridemia, grade III, percent of subjects (100 mg q.d.): 0% | Hypertriglyceridemia, number of subjects (%) (100 mg q.d.): 0 (0) n (%) | Increased alanine aminotransferase, cases (100 mg q.d.): 3 case | Increased alanine aminotransferase, grade I, number of subjects (100 mg q.d.): 3 n | Increased alanine aminotransferase, grade I, percent of subjects (100 mg q.d.): 37.50% | Increased alanine aminotransferase, grade II, number of subjects (100 mg q.d.): 0 n | Increased alanine aminotransferase, grade II, percent of subjects (100 mg q.d.): 0% | Increased alanine aminotransferase, number of subjects (%) (100 mg q.d.): 3 (37.5) n (%)

Source: paper PMC10022191, “Safety, tolerability, pharmacokinetics, and antiviral activity of the novel core protein allosteric modulator ZM-H1505R (Canocapavir) in chronic hepatitis B patients: a randomized multiple-dose escalation trial” (BMC Medicine, 2023)
